Measured values as given in US5488033A, “Treatment to reduce edema” (The Regents of the University of California, priority 1994, dated 1996).
No end group written: not given here.

Legend:
[1] = test system: Freeze Injury to Brain (vascular permeability of brain); assay: Cold (freeze) injury to rat brain, vascular leakage by Monastral blue staining; format: in vivo
Source text: An in vivo model of injury to study brain edema has been developed as a reproducible edema model, which has the features of immediate cortical damage followed by the subsequent development of brain edema. This model is described by Chan et al., Brain Research, 277, pp. 329-337 (1983). The model uses rats which are anesthetized. A 2.5 cm incision is made over the sagittal suture and the bone of the right hemisphere exposed. A 60 mm^2 plate attached to a brass cup filled with dry ice-acetone mixture, with a temperature of -50° C., is applied to the rat skull for one minute. The animals are sacrificed at various intervals after the onset of cold-injury. A dye is administered intravenously before the freezing. Cortical slices are then obtained of the brain.
Sixteen male rats were randomly divided into eight pairs and one rat in each pair received either saline or CRF (subcutaneously twice at 30 μg/kg, 30 min and 10 min before cold injury). The animals were anesthetized with sodium pentobarbital, 60 mg/kg intraperitoneally, and injected with Monastral blue, 60 mg/kg intravenously. A cold probe was applied onto the skull for four minutes and the brains taken out one hour after cold injury. The staining of brain tissues with Monastral blue, a colloidal pigment that gets trapped between the albuminal surface of the endothelial cell and the basement membrane, was proportional to the degree of vascular leakage. The results from the first pair are shown as FIG. 1.
The size of the lesion, measured as area in mm^2, and the degree of staining intensity, were quantified using an image-analysis software program called JAVA (Jandel Corporation, San Rafael, Calif.). The stain intensity, given in arbitrary units, was internally calibrated using Monastral blue solutions (1-30 mg/ml) placed on white filter paper. Values are mean ± S.E.M.

[2] = test system: cerebral cortex and basal ganglia (brain edema); assay: Freeze injury of cerebral cortex, water and sodium content as index of brain edema; format: in vivo, rat; settings: CRF 30 μg/kg s.c. 2×, ± S.E.M., N = 5
Method: In a second set of experiments, the brain surface, namely the cerebral cortex, was injured by freezing and the water and sodium content were measured in the cerebral cortex and in the basal ganglia, a part of the brain away from the freeze zone. The water and sodium content of the brain tissue served as an index of brain edema. After freeze injury, the water and sodium content of the cerebral cortex were evaluated relative to non-frozen tissues. CRF administered in two separate doses of 30 μg/kg subcutaneously, one dose 15 minutes before the injury and the second dose 90 minutes after the first dose, inhibited the two indices of brain edema.
Male SpragueDawley rats, 300-325 g, anesthetized with
ketamineacepromazine, were injected saline or CRF (30 μg/kg s.c.
2×) and injury to cerebral cortex was produced by applying a cold
probe to the skull for 1 min. Brain tissues were obtained 3 hr later and
analyzed for water and sodium content.

[3] = test system: abdominal muscle wall (vascular leakage after celiotomy); assay: Vascular leakage after celiotomy (4 cm midline incision of abdominal muscle wall), Monastral blue; format: in vivo, rat; settings: for Area / Intensity / Lesion Size: tissues 0.5 hour after surgery; for lesion size relative to that of the saline-treated group: celiotomy
Method: Experiments were conducted on male Sprague-Dawley rats 243±15 gm (S.D., Simonsen Labs., Gilroy, Calif.) anesthetized with sodium pentobarbital, 60 mg/kg i.p. Monastral blue, 60 mg/kg i.v., was injected 0.2 ml/100 g, 3 minutes before a 4 cm midline incision through the abdominal muscle wall (celiotomy). Saline or CRF was administered to randomized pairs with N=8 rats per group. The size of the lesion, measured as area in mm^2, and its light intensity, were quantified using the JAVA image-analysis software program. The light intensity, given in arbitrary units, was internally calibrated using Monastral blue solutions (1-30 mg/ml) placed on white filter paper. Values are mean ± S.E.M. FIG. 2 illustrates the respective amount of vascular permeability for one pair of rats (control and treated). Tables III and IV set out data from these experiments.
CRF: injected at various doses subcutaneously 30 minutes
before a 4 cm midline incision, tissues taken 0.5 hour
CRF: 30 μg/kg s.c. injected 2 hour before a 4 cm
midline incision, tissues taken 0.5 hour after surgery

[4] = test system: vascular leakage produced by PAF-acether; assay: Vascular leakage produced by PAF-acether injected subcutaneously into the abdomen; format: in vivo, rat
Method: CRF: 30 μg/kg s.c. injected 30 minutes before subcutaneous
injection of PAF-acether (1 μg/0.1 ml/rat) into the abdomen;
muscle removed 0.5 hour later.

[5] = test system: neutropenic rats infected with Pseudomonas; assay: Neutropenic rat model of sepsis (Pseudomonas infection), survival; format: in vivo; settings: CRF 100 μg/kg i.v. twice a day for four days after onset of fever; day 11; 9/15; P<0.002 vs saline (100% mortality by day 8)
Source text: The neutropenic rat model of sepsis, designed to mimic the systemic inflammatory response syndrome in humans, is described by Collins et al. from The Journal of Infectious Diseases, 159:6 (June 1989) and The Journal of Clinical Investigation, 88:885 (September 1991). […] The animals die from overwhelming infection within 7 to 9 days of infection and examination of the tissues with histological and pathological techniques reveal the characteristic organic manifestations of the systemic inflammatory response syndrome, namely, organ edema and tissue necrosis.
In a typical experiment, 10 rats serving as controls received saline and 15 rats received CRF at a dose of 100 μg/kg intravenously, given twice a day for four days after the onset of fever. At the end of 8 days, all of the animals in the control group were dead (100% mortality). By contrast, 60% (9/15) of the CRF group were still alive at day 11 when the experiment was concluded. The difference between the saline and CRF treated groups were statistically significant (P<0.002).

[6] = CRF 30 μg/kg s.c. twice, 30 min and 10 min before cold injury, brains taken 1 hour after injury, mean ± S.E.M.
[7] = injured cerebral cortex, tissue 3 hr after 1 min cold probe
[8] = non-injured basal ganglia, tissue 3 hr after injury
[9] = CRF 15 μg/kg s.c. 30 minutes before incision
[10] = CRF 30 μg/kg s.c. 30 minutes before incision
[11] = CRF 30 μg/kg s.c. 2 hour before incision
[12] = CRF 60 μg/kg s.c. 30 minutes before incision
[13] = CRF 30 μg/kg s.c. 30 minutes before PAF-acether 1 μg/0.1 ml/rat s.c., muscle removed 0.5 hour later

CRF: 41 amino acid neuropeptide, mammalian corticotropin-releasing factor; stimulates ACTH release from pituitary cells (SEEPPISLDLTFHLLREVLEMARAEQLAQQAHSNRKLMEII; not fully specified; ends and bridges not checked; UniProt P06850 154-194, looked up)
Area [1, 6]: 20.8 ± 1.2 mm^2
Intensity (staining intensity) [1, 6]: 2.0 ± 0.05 arbitrary units
Lesion Size [1, 6]: 43 ± 3
lesion size relative to that of the saline-treated group ([1]; brain cold injury, CRF 30 μg/kg s.c. twice): 44%
correct assignment of brains to saline or CRF group by an observer unaware of pretreatment ([1]; eight pairs of rats, more damaged vs less damaged brain): 8 out of 8
SODIUM, cerebral cortex [2, 7]: 271 ± 8 mEg/kg dry wt
WATER CONTENT, cerebral cortex [2, 7]: 77 ± 4%
SODIUM, basal ganglia [2, 8]: 215 ± 9 mEg/kg dry wt
WATER CONTENT, basal ganglia [2, 8]: 76 ± 1%
Area [3, 9]: 505 ± 16 mm^2
Intensity [3, 9]: 2.0 ± 0.03 arbitrary units
Lesion Size [3, 9]: 1031 ± 44
Area [3, 10]: 361 ± 18 mm^2
Intensity [3, 10]: 1.9 ± 0.05 arbitrary units
Lesion Size [3, 10]: 676 ± 47
Area [3, 11]: 477 ± 31 mm^2
Intensity [3, 11]: 1.9 ± 0.03 arbitrary units
Lesion Size [3, 11]: 919 ± 51
Area [3, 12]: 257 ± 3 mm^2
Intensity [3, 12]: 1.8 ± 0.05 arbitrary units
Lesion Size [3, 12]: 468 ± 19
lesion size relative to that of the saline-treated group [3, 9]: 63%
lesion size relative to that of the saline-treated group [3, 10]: 42%
lesion size relative to that of the saline-treated group ([3]; CRF 30 μg/kg s.c. 2 hours before injury): 59%
lesion size relative to that of the saline-treated group [3, 12]: 29%
muscle lesion size relative to that of the saline-treated control group ([4]; CRF 30 μg/kg s.c. 30 minutes before PAF-acether): 44%
Area [4, 13]: 188 ± 16 mm^2
Intensity [4, 13]: 1.4 ± 0.05
Lesion Size [4, 13]: 260 ± 26
animals still alive (survival) [5]: 60%
